Source: patent US4699925A, “Biphenylylpropionic acid derivative and pharmaceutical composition containing the same” (priority 1982, dated 1987)
Where two headings read alike, the source gives them in different places.

What was measured:
[1] = system: carrageenan-induced edema; experiment: Inhibitory effect on carrageenan-induced edema; assay type: in vivo, Wistar male rats; details: Rattus norvegicus
Experimental: Five Wistar male rats weighing about 150 g. were used as one group. A 1% dispersion of carrageenan was injected intracutaneously into the foot pad of the right hind foot in a dose of 0.1 ml./rat. The compounds to be tested were orally administered to the rats fasted for 15 hours one hour before the carrageenan injection, or intravenously administered 2 hours […] the carrageenan injection. The volume of the foot subjected to the injection was measured by a mercury plethysmography 3 hours after the carrageenan injection on the test by oral route or 2 hours after the carrageenan injection on the test by intravenous route, and the carrageenan-induced edema was estimated from the obtained measurements.

[2] = Gastric ulceration (gastric irritation test); design: species or system Wistar male rats; details: rat, in vivo, po, read-out: UD50
Experimental: Five Wistar male rats weighing about 150 g. were used as one group. The rats were fasted for 24 hours before the test.
Six hours after orally administration of the present compounds to be tested, there was observed an existence of gastric ulcer by the method of Okabe et al (Ohyoyakuri, 16, 241 to 247 (1978)). The UD50 values were calculated from the ulcer incidence of gastric ulcer by the method of Litchfield-Wilcoxon.

[3] = Hydrolysis of FP derivatives in rat plasma; assay type: in vitro ADME; details: Table 4; rat plasma (Compound Nos. 8 to 13), 37° C., one hour; read-out: Hydrolyzing rate
Experimental: (§1) Each reaction mixture was incubated at 37° C. for one hour.
(§2) The free FP formed by esterase in the plasma was extracted with benzene. After treating the extract with N,O-bis(trimethylsilylacetamide) for trimethylsilylation, the obtained material was determined by gas-liquid chromatography.

Acute toxicity = experiment: Acute toxicity; design: species or system male SLC-ddY mice; details: mouse, in vivo, po
[4] = Hydrolysis of FP derivatives in human plasma; assay type: in vitro ADME; details: Table 4; human plasma (Compound Nos. 1 to 7), 37° C., one hour; read-out: Hydrolyzing rate
Experimental: as §1, §2

[5] = Table 1, orally in rats, 50% ulcerative dose
[6] = Table 3, rats, orally, six hours after administration
[7] = Table 1, orally in mice, 50% lethal dose
[8] = Table 5, mice, orally, observation for 2 weeks

SMILES	ED50 ([1]; po, 1 h, read-out: ED50 p.o.) [mg/kg]	ED50 ([1]; po, read-out: ED50 p.o.) [mg/kg]	TD50 at 6 h [2, 5] [mg/kg]	TD50 at 6 h [2, 6] [mg/kg]	metabolised at 1 h [3] [%]	LD50 at 336 h (Acute toxicity; [7]) [mg/kg]	LD50 at 336 h (Acute toxicity; [8]) [mg/kg]	ED50 ([1]; iv, 2 h, read-out: ED50 i.v.) [mg/kg]	ED50 ([1]; po, 1 h, Table 1, rats, orally, one hour before carrageenan injection, read-out: ED50 p.o.) [mg/kg]	ED50 ([1]; po, Table 2, rats, orally one hour before carrageenan injection, measured 3 hours after carrageenan, read-out: ED50 p.o.) [mg/kg]	metabolised at 1 h [4] [%]
CCC(=O)OCCOC(=O)C(C)c1ccc(-c2ccccc2)c(F)c1 (stereo not drawn) [Compound No. 9, 2-(propionyloxy)ethyl 2-(2-fluoro-4-biphenylyl)propionate]	0.7	0.7	2	2	98.9	700	700	–	–	–	–
C/C=C/C(=O)OCCOC(=O)C(C)c1ccc(-c2ccccc2)c(F)c1 (stereo not drawn) [Compound No. 10, 2-(crotonoyloxy)ethyl 2-(2-fluoro-4-biphenylyl)propionate]	0.9	0.9	3	3	99.5	800	800	–	–	–	–
CC(C)=CC(=O)OCCOC(=O)C(C)c1ccc(-c2ccccc2)c(F)c1 (stereo not drawn) [Compound No. 11, 2-(3,3-dimethylacryloyloxy)ethyl 2-(2-fluoro-4-biphenylyl)propionate]	1	1	3	3	99.8	880	880	–	–	–	–
CC=CC=CC(=O)OCCOC(=O)C(C)c1ccc(-c2ccccc2)c(F)c1 (stereo not drawn) [Compound No. 12, 2-(2,4-hexadienoyloxy)ethyl 2-(2-fluoro-4-biphenylyl)propionate]	0.9	0.9	3	3	100	750	750	–	–	–	–
CC(C)=CCCC(C)=CC(=O)OCCOC(=O)C(C)c1ccc(-c2ccccc2)c(F)c1 (stereo not drawn) [Compound No. 13, 2-(3,7-dimethyl-2,6-octadienoyloxy)ethyl 2-(2-fluoro-4-biphenylyl)propionate]	0.9	0.9	3	3	101	750	750	–	–	–	–
CC(C(=O)O)c1ccc(-c2ccccc2)c(F)c1 (stereo not drawn) [FP, 2-(2-fluoro-4-biphenylyl)propionic acid, reference compound]	0.8	0.8	1	1	–	440	440	0.3	–	–	–
COc1ccc2c(c1)c(CC(=O)OCC(=O)O)c(C)n2C(=O)c1ccc(Cl)cc1 [acemethacin, reference compound]	–	–	–	–	–	18	18	–	8.3	8.3	4.2
COc1ccc2c(c1)c(CC(=O)O)c(C)n2C(=O)c1ccc(Cl)cc1 [indomethacin, reference compound]	5.5	5.5	5	5	–	14	14	1.25	–	–	–
